Measured values reported in US7015237B2, “Pyridine matrix metalloproteinase inhibitors” (Warner-Lambert Company, priority 2001, dated 2006).
Like-named read-outs stand apart in the source and are kept apart here.

Assays:
[1] = target: MMP-13 (catalytic domain of collagenase 3) (Homo sapiens, UniProt P45452); assay: Thiopeptolide substrate hydrolysis assay, MMP-13; format: biochemical
Source text: (§1) The assays used to evaluate the biological activity of the invention compounds are well known and routinely used by those skilled in the study of MMP inhibitors and their use to treat clinical conditions.
(§2) The assays measure the amount by which a test compound reduces the hydrolysis of a thiopeptolide substrate catalyzed by a matrix metalloproteinase enzyme. Such assays are described in detail by Ye et al., in Biochemistry, 1992; 31(45):11231–11235, which is incorporated herein by reference.
Thiopeptolide substrates show virtually no decomposition or hydrolysis at or below neutral pH in the absence of a matrix metalloproteinase enzyme. A typical thiopeptolide substrate commonly utilized for assays is Ac-Pro-Leu-Gly-thioester-Leu-Leu-Gly-OEt. A 100-μL assay mixture will contain 50 mM of N-2-hydroxyethylpiperazine-N′-2-ethanesulfonic acid buffer (“HEPES”) at pH 7.0, 10 mM CaCl2, 100 μM thiopeptolide substrate, and 1 mM 5,5′-dithio-bis-(2-nitro-benzoic acid) (DTNB). The thiopeptolide substrate concentration may be varied from, for example, 10 to 800 μM to obtain Km and Kcat values. The change in absorbance at 405 nm is monitored on a Thermo Max microplate reader (Molecular Devices, Menlo Park, Calif.) at room temperature (22° C.). The calculation of the amount of hydrolysis of the thiopeptolide substrate is based on E412=13600 M^−1 cm^−1 for the DTNB-derived product 3-carboxy-4-nitrothiophenoxide. Assays are carried out with and without matrix metalloproteinase inhibitor compounds, and the amount of hydrolysis is compared for a determination of inhibitory activity of the test compounds.
In the tables, MMP-1 refers to full-length interstitial collagenase; MMP-3 refers to the catalytic domain of stromelysin-1; MMP-13 refers to the catalytic domain of collagenase 3. Test compounds were evaluated at various concentrations to determine their respective IC50 values.

[2] = target: T1, MMP-1 (full-length interstitial collagenase) (Homo sapiens, UniProt P03956); assay: Thiopeptolide substrate hydrolysis assay, MMP-1; format: biochemical; settings: pH 7.0, 22° C.
T1 sequence (P03956 100-469): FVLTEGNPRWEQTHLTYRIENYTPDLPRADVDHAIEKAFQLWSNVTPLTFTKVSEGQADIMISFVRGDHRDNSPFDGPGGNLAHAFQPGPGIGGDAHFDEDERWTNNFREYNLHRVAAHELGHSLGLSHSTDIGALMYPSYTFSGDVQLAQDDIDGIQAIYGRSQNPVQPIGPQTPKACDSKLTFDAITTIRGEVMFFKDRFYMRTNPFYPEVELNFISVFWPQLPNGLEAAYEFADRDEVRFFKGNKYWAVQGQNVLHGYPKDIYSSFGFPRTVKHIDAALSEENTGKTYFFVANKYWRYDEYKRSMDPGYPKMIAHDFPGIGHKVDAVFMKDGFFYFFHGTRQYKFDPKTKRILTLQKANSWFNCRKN
Source text: as §1, with “The invention compounds of Formula I have been evaluated in standard assays for their ability to inhibit the catalytic activity of various MMP enzymes. The” for “The”
as §2
Thiopeptolide substrates show virtually no decomposition or hydrolysis at or below neutral pH in the absence of a matrix metalloproteinase enzyme. A typical thiopeptolide substrate commonly utilized for assays is Ac-Pro-Leu-Gly-thioester-Leu-Leu-Gly-OEt. […] The change in absorbance at 405 nm is monitored on a Thermo Max microplate reader (Molecular Devices, Menlo Park, Calif.) at room temperature (22° C.). […]
Representative compounds have been evaluated for their ability to inhibit various matrix metalloproteinase enzymes. […] Test compounds were evaluated at various concentrations to determine their respective IC50 values.

[3] = catalytic domain of collagenase 3, Table 1, read-out: MMP-13 IC50
[4] = catalytic domain, human, combinatorial compounds of Example 14, Table 2, read-out: MMP-13 IC50 CD/Human

| Compound | melting point [°C] | IC50 [1, 4] [µM] | other results |
| --- | --- | --- | --- |
| O=C(NCc1ccc(Cl)cc1)c1cncc(C(=O)NCc2ccc(Cl)cc2)c1 [Example 2, Pyridine-3,5-dicarboxylic acid bis-(4-chloro-benzylamide)] | 224 to 225 |  |  |
| O=C(NCc1cccc(Cl)c1)c1cncc(C(=O)NCc2cccc(Cl)c2)c1 [Example 3, Pyridine-3,5-dicarboxylic acid bis-(3-chloro-benzylamide)] | 185 to 186 |  | IC50 [1, 3]: 30 µM |
| O=C(OCc1ccc2c(c1)OCO2)c1cncc(C(=O)OCc2ccc3c(c2)OCO3)c1 [Example 5, Pyridine-3,5-dicarboxylic acid bis-(1,3-benzodioxol-5-ylmethyl) ester] | 113 to 114 |  |  |
| COc1ccc(CNC(=O)c2cncc(C(=O)NCc3ccc(OC)cc3)c2)cc1 [Example 6, Pyridine-3,5-dicarboxylic acid bis-(4-methoxy-benzylamide)] | 224 to 225 |  | IC50 [1, 3]: 8.7 µM |
| O=C(NCc1ccc2c(c1)OCO2)c1cncc(C(=O)NCc2ccc3c(c2)OCO3)c1 [Example 7, Pyridine-3,5-dicarboxylic acid bis-[(1,3-benzodioxol-5-ylmethyl)-amide]] | 194 to 195 |  | IC50 [2]: 30 µM; IC50 [1, 3]: 2.3 µM |
| O=C(NCc1ccc(F)cc1)c1cncc(C(=O)NCc2ccc(F)cc2)c1 [Example 9, Pyridine-3,5-dicarboxylic acid bis-(4-fluoro-benzylamide)] | 216 to 218 |  |  |
| Pyridine-2,4-dicarboxylic acid bis-benzylamide [Example 14.5] |  | 0.29 |  |
| Pyridine-2,4-dicarboxylic acid bis-indan-1-ylamide [Example 14.73] |  | 0.44 |  |

Further lines, with some results ahead:

| melting point [°C] | IC50 [1, 4] [µM] | Compound | other results |
| --- | --- | --- | --- |
|  | 30 | COc1ccc2[nH]cc(CCNC(=O)c3ccnc(C(=O)NCCc4c[nH]c5ccc(OC)cc45)c3)c2c1 [Example 14.78, Pyridine-2,4-dicarboxylic acid bis-{[2-(5-methoxy-1H-indol-3-yl)-ethyl]-amide}] |  |
|  | 30 | O=C(NCCc1c[nH]c2ccccc12)c1ccnc(C(=O)NCCc2c[nH]c3ccccc23)c1 [Example 14.79, Pyridine-2,4-dicarboxylic acid bis-{[2-(1H-indol-3-yl)-ethyl]-amide}] |  |
|  | 30 | O=C(NCc1cc(Cl)cc(Cl)c1)c1ccnc(C(=O)NCc2cc(Cl)cc(Cl)c2)c1 [Example 14.80, Pyridine-2,4-dicarboxylic acid bis-(3,5-dichloro-benzylamide)] |  |
